Drawing on PubChem BioAssay (NCI), this text covers TGI and GI50 for 32 compounds.

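Compound exposure: 48 hours, 5 concentrations, 96-well plates. Here, GI50 denotes the concentration required for 50% inhibition of growth. The concentration for full growth arrest is given as TGI.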

Holding throughout (test): NCI tumour cell line growth inhibition, 48 h
The subject of experiment [1] is HCT-116 colon.
The test system of experiment [2] is NCI-H226 lung.
Experiment [3] has as its system HCC-2998 colon.
In experiment [4] the test system is MALME-3M melanoma.
In experiment [5] the test system is NCI-H23 lung.
For experiment [6], the system named is TK-10 renal.
Experiment [7] deals with SNB-19 CNS.
Experiment [8] deals with PC-3 prostate.
Experiment [9] has as its system SK-MEL-28 melanoma.

Turning to `COc1ccc(OC)c(NC2=NCCO2)c1`, the TGI in experiment [1], in experiment [2], in experiment [3], in [4], in experiment [5] and in [6] was more than 100 µM in each case. Besides, the TGI in experiment [7] is 22.7 µM; in experiment [8] it was more than 100 µM; in experiment [9], more than 100 µM.

`CCOC(=O)CCC(NC(=O)c1ccc(Nc2nc3cc(C(F)(F)F)ccc3nc2C(=O)OCC)cc1)C(=O)OCC` (stereo not given): the TGI in experiment [1] was 19.9 µM; in [3] it was more than 100 µM; in experiment [5] it was 39.9 µM; in experiment [7], 22.6 µM; in experiment [8], 21.5 µM; in [9] it was 27.9 µM.

In the case of `CC(=O)NNc1nc(C)c(C(/C=C/c2ccc([N+](=O)[O-])cc2)=N/NC(N)=O)s1`, the TGI in [1], in experiment [2], in experiment [3], in experiment [4], in experiment [5] and in [6] was more than 100 µM in each case. The TGI in [7], in [8] and in experiment [9] was more than 100 µM in each case.

As for `CC(C)(C)c1ccc(O)c(C(c2ccc([N+](=O)[O-])cc2)c2cc(C(C)(C)C)ccc2O)c1`, the TGI was 5.06 µM in experiment [1]; 3.51 µM in [2]; 3.44 µM in experiment [3]; 4.23 µM in experiment [5]; 7.39 µM in experiment [6]; 5.36 µM in [7]. Further, the TGI in experiment [8] is 3.33 µM; in experiment [9], 3.72 µM.

For `O=C1CCCCC/C1=C\c1cccc([N+](=O)[O-])c1`, the TGI in experiment [1] was 53 µM; in [3], 44 µM; in experiment [4], 72.4 µM; in experiment [6], 97.2 µM; in experiment [7], more than 100 µM; in experiment [8] it was more than 100 µM. Besides, the TGI in experiment [9] was more than 100 µM.

`N/C(=N\NC(=O)c1nc2ccccc2s1)c1ccccn1`: the TGI is 19.6 µM in experiment [1]; more than 61.5 µM in experiment [3]; more than 100 µM in [4]; 52.6 µM in experiment [5]; more than 100 µM in [6]; more than 100 µM in experiment [7]. Besides, the TGI in experiment [8] and in experiment [9] was more than 100 µM in each case.

In the case of `CCCc1n[nH]c(=O)n1N1C(=O)C=CC1=O`, the TGI in experiment [1], in experiment [3], in experiment [4], in experiment [5], in experiment [6] and in experiment [8] was more than 100 µM in each case.

For the compound `N#CCCN(CCC#N)c1ccc(/C=C2\SC(=S)NC2=O)cc1`, the TGI in experiment [1], in experiment [2], in [3], in experiment [4], in experiment [5] and in experiment [6] was more than 100 µM in each case. In addition, the TGI in experiment [7], in experiment [8] and in experiment [9] was more than 100 µM throughout.

For `CC(=O)OC12CC(C(F)(F)F)(C(F)(F)F)OC1(OC(C)=O)CC(C(F)(F)F)(C(F)(F)F)O2` (stereo not given), the TGI in [1] was 29.7 µM; in experiment [2], more than 100 µM; in [3] it was more than 100 µM; in experiment [4], more than 100 µM; in experiment [5] it was 8.71 µM; in experiment [6] it was more than 100 µM. Also, the TGI in experiment [7], in experiment [8] and in experiment [9] was more than 100 µM each time.

Regarding `COCCOC(C)C(=O)C(O)S(=O)(=O)O` (stereo not given), the TGI in [1], in experiment [2], in experiment [3], in experiment [4], in [5] and in experiment [6] was more than 100 µM in each case. In addition, the TGI in [7], in experiment [8] and in experiment [9] was more than 100 µM in each case.

As to `O=C(N/N=C\c1cccs1)c1ccncc1`, the TGI in experiment [1], in experiment [2], in [3], in [4], in experiment [5] and in experiment [6] was more than 100 µM throughout. Moreover, the TGI in experiment [7], in experiment [8] and in [9] was more than 100 µM in each case.

For the compound `Cn1c(=O)c2c(nc3n2CCC(=O)N3CCCCl)n(C)c1=O`, the TGI in experiment [1], in experiment [2], in experiment [3], in experiment [5], in [6] and in experiment [7] was more than 100 µM each time. Also, the TGI in experiment [8] and in experiment [9] was more than 100 µM each time.

On to `COC(=O)[C@H]1[C@@H](O)[C@@]2(O)c3c(OC)cc(OC)cc3O[C@@]2(c2ccc3c(c2)OCO3)[C@@H]1c1ccccc1`, for which the TGI in experiment [1] stood at 0.4 µM; in experiment [2], 3.23 µM; in [3], 5.18 µM; in experiment [4], 9.69 µM; in experiment [5] it was 0.823 µM; in [7], 0.00512 µM. This compound displayed a TGI in experiment [8] of more than 18 µM.

On to `N/C(=N\S(=O)(=O)c1ccc(-c2ccccn2)s1)Nc1ccc(Cl)cc1`, for which the TGI in experiment [1] worked out at 31 µM; in [2], 35.8 µM; in [4] it was 33.4 µM; in [5], 33.2 µM; in experiment [6] it was 32.1 µM; in experiment [7], 31.5 µM. In addition, the TGI stood at 27.3 µM in [8] and 37.8 µM in experiment [9].

On to `C/C(=N/NC(=S)N(C)C)c1ccccc1O`, for which the TGI is 34.8 µM in experiment [1]; more than 66.3 µM in experiment [2]; more than 100 µM in experiment [3]; more than 76.1 µM in experiment [4]; more than 100 µM in experiment [5]; more than 100 µM in experiment [6]. The TGI in experiment [7], in [8] and in experiment [9] was more than 100 µM throughout.

With `O=C(O)CN1CCCC(Cc2c[nH]c3ccccc23)C1` (stereo not given), the TGI in experiment [2], in [3], in experiment [4], in [5], in experiment [6] and in experiment [8] was more than 100 µM throughout. Also, the TGI in experiment [9] was more than 100 µM.

Take `C[C@@H](NC(=O)[C@@H]1C[C@]1(C)CO)c1cccc2ccccc12`: the TGI in [1], in experiment [2], in experiment [3], in [4], in experiment [5] and in [6] was more than 100 µM in each case. Besides, the TGI in experiment [7], in experiment [8] and in experiment [9] was more than 100 µM in each case.

On to `Cc1ccc2n(c1)cc(-c1ccc(/C=N/NC(=N)N/N=C/c3ccc(-c4cn5cc(C)ccc5[n+]4C)cc3)cc1)[n+]2C`, for which the TGI is more than 100 µM in experiment [1]; more than 100 µM in [3]; more than 100 µM in experiment [6]; more than 100 µM in experiment [7]; more than 100 µM in [8]; 33.6 µM in experiment [9].

As for `CC(C)(C)c1cc(C(=O)C2Cc3ccccc3C(=O)O2)cc(C(C)(C)C)c1O` (stereo not given), the TGI turned out to be 21.9 µM in [1]; 35.5 µM in experiment [2]; 29.6 µM in [4]; 35.8 µM in [5]; 28.6 µM in [6]; 24.7 µM in [7]. The TGI in experiment [8] was determined as 28.2 µM; in experiment [9], 36.8 µM.

`Fc1ccc2[nH]cc(-c3nc(-c4c[nH]c5ccncc45)cs3)c2c1`: the GI50 in experiment [3] is 1.92 µM; in experiment [6], 2.3 µM; in experiment [8] it was 1.47 µM; in experiment [9], 1.9 µM. Also, the TGI in experiment [3] is 3.49 µM; in [6], 3.91 µM; in experiment [8], 2.99 µM; in experiment [9] it was 3.33 µM.

For `Cc1ccc(S(=O)(=O)/N=C2/N(C)CCCS2(=O)=O)cc1`, the TGI in [1], in experiment [2], in experiment [3], in experiment [5], in experiment [6] and in [7] was more than 100 µM throughout. Also, the TGI in experiment [8] and in experiment [9] was more than 100 µM throughout.

As for `O=C(NNS(=O)(=O)c1ccc(Br)cc1)c1ccc(Cl)cc1NC(=O)C12CC3CC(CC(C3)C1)C2`, the TGI in experiment [1] was more than 100 µM; in experiment [2], 35.6 µM; in [4], 35.3 µM; in experiment [5] it was 28.2 µM; in experiment [6], 33.2 µM; in experiment [7] it was 28.7 µM. In addition, in [8], the TGI is 38.6 µM.

Take `O=S(c1ccccc1)C1CC2CC3(CCC21O)OCCO3` (stereo not given): the TGI in experiment [2], in experiment [3], in experiment [4], in experiment [5], in experiment [6] and in [7] was more than 100 µM in each case. For the same compound, the TGI in [8] and in [9] was more than 100 µM each time.

Consider `Clc1ccc2nc3n[nH]c(Cl)c3nc2c1`, for which the TGI in experiment [1], in [3], in [5], in [6], in [7] and in [8] was more than 100 µM throughout. The compound further displayed a TGI in [9] of more than 100 µM.

In the case of `C=CC(C)(C)C1(CC(OC)OC)C(=O)N(C)c2ccccc21` (stereo not given), the TGI in experiment [1], in [2], in [3], in experiment [5], in experiment [7] and in [8] was more than 25 µM throughout. The compound further came in with a TGI in experiment [9] of more than 25 µM.

`CC1(C)Oc2ccc3c(=O)cc(-c4cccs4)oc3c2C1C(=O)O` (stereo not given): the TGI in experiment [1], in [2], in [3], in experiment [4], in [5] and in experiment [6] was more than 100 µM each time. In experiment [8], this compound registered a TGI of more than 100 µM.

On to `CC(C)NCC(O)c1ccc(O)c2ncccc12` (stereo not given), for which the TGI in [1] was 87.7 µM; in [2], more than 100 µM; in experiment [3], more than 100 µM; in experiment [5], 78.7 µM; in experiment [6], more than 100 µM; in [7], more than 100 µM. The TGI in experiment [8] and in experiment [9] was more than 100 µM throughout.

Regarding `N#C/C=c1/c2ccccc2n2nc3ccccc3c12`, the TGI in [1] was 12.1 µM; in experiment [3] it was more than 100 µM; in [4], more than 100 µM; in [5] it was 59.2 µM; in experiment [6] it was 30.5 µM; in [7], 40 µM. In addition, the TGI in experiment [8] and in experiment [9] was more than 100 µM in each case.

Consider `C[C@]12C(=O)C=CCC1=CC[C@@H]1[C@@H]2[C@H]2CC3(O)C(=O)O[C@@]4(C)[C@H]5C[C@@]6(C)[C@@H]7[C@@]2(O)[C@]1(OC[C@H]6C(=O)O5)O[C@]734` (stereo not given in full), for which the TGI in experiment [1] is more than 100 µM; in experiment [4], more than 100 µM; in experiment [5] it was 54.6 µM; in [6] it was more than 100 µM; in experiment [7] it was more than 100 µM; in experiment [8], more than 100 µM. This compound yielded a TGI in [9] of more than 100 µM.

For `Nc1nc2c(c(-c3ccccc3Cl)n1)COC/C2=C\c1ccccc1Cl`, the TGI was 30.7 µM in experiment [1]; 39.2 µM in experiment [2]; 34.6 µM in experiment [3]; 34.8 µM in experiment [5]; 31.9 µM in experiment [6]; 29.8 µM in experiment [7]. In experiment [8], this compound returned a TGI of 27.4 µM.

Turning to `C=CCNc1nc(O)c(/C=C2\C=Nc3ncccc32)s1`, the GI50 in [1] was 1.52 µM; in experiment [2], 1.99 µM; in experiment [3], 3.4 µM; in experiment [5] it was 1.93 µM; in experiment [6], 2.18 µM; in experiment [7], 2.32 µM. In addition, the GI50 in experiment [9] is 2.52 µM. Moreover, the TGI in experiment [1] was more than 100 µM; in experiment [2], 21.6 µM; in [3], 58.5 µM; in experiment [5], 6.28 µM; in experiment [6] it was 16.8 µM; in experiment [7], 7.29 µM. The compound further yielded a TGI in experiment [9] of 9.14 µM.

As to `CC(C(=O)NCCNC(=O)CCC(=O)N(C)O)C(=O)NCCNC(=O)CCC(=O)N(C)O`, the TGI in experiment [2], in [3], in experiment [4], in experiment [5], in experiment [6] and in [7] was more than 100 µM in each case. Further, the TGI in [8] and in [9] was more than 100 µM each time.
